“Also recorded” adds a separate entry of the source.
Experiments:
[1] = test system: EcoRI site on end-labeled DNA fragment; experiment: Footprinting of EcoRI; format: binding; settings: in words
[2] = test system: distamycin binding sites on end-labeled DNA fragment; experiment: Footprinting of distamycin; settings: in words
[3] = test system: distamycin binding sites on end-labeled DNA fragment; settings: comparison reagents; cited from earlier work
B-form DNA = experiment: Steady state luminescence polarization with B-form DNA; format: binding; settings: 100 μM DNA
Procedure: (§1) FIG. 22 Steady State Polarization of Ru(bpy)2 (dppz)^2+ with B and Z-form DNA Under the conditions that provide B-form (lower curve) DNA the highest measured polarization is 0.15 with a limiting polarization 0.10. Under the conditions that provide Z-DNA (upper curve) the highest polarization is 0.35 with a limiting polarization of 0.14. Ru(bpy)2 (dppz)^2+ 10 μM, poly d(GC) d(GC) 100 μM, λex =482 nm.
To further test the extent of intercalation of this complex a study of the steady state luminescence polarization of the complex bound to each form of DNA was made. These experiments give information on how rigidly the complex is held by the DNA. […] This reflects a situation where the complex is completely bound to the right-handed helix. As the concentration of Ru(bpy)2 (dppz)^2+ increases, the polarization decreases to limiting value (0.10) at a complex:base pair ratio of 1:10.
To further test the extent of intercalation of this complex we studied the steady state luminescence polarization of the complex bound to each form of DNA. These experiments give information on how rigidly the complex is held by the DNA. […] This reflects a situation where the complex is completely bound to the right-handed helix. As the concentration of Ru(bpy)2 (dppz)^2+ increases, the polarization decreases to a limiting value (0.10) at a complex: base pair rtio of 1:10.

Z-form DNA = experiment: Steady state luminescence polarization with Z-form DNA; format: binding
Procedure: as §1
Similarly, when 1 μM Ru(bpy)2 (dppz)^2+ is titrated into poly d(GC).d(GC) (100 μM) in the Z-form, luminescence polarization is also observed, but in this case the value is 0.35, over double the value found with the analogous solution with B-form. […] As more complex is added the observed polarization reduces to a limiting value of 0.14, still higher than the analogous sample with B-form, thus further confirming the Z-form is a more rigid structure than the B-form.

[4] = test system: poly d(GC).d(GC) B-form DNA; experiment: Luminescence with poly d(GC).d(GC), B-form; format: binding
Procedure: (§2) FIG. 21A to 21C: Luminescent Enhancement of Ru(bpy)2 (dppz)^2+ with B and Z-form DNA a. Ru(bpy)2 (dppz)^2+ 10 μM in buffer R=50.0 mM NaCl, 5.0 mM Tris-OH, pH=7.0. b. Ru(bpy)2 (dppz)2 10 μM in buffer R, with poly d(GC) d(GC) 100 μM under conditions providing B-form DNA. c. Ru(bpy)2 (dppz)^2+ 10 μM in buffer R-L=20.0 mM NaCl, 2.0 mM Tris-OH, pH 7.0, Co(NH3)6^3+ 4μM., with poly d(GC) d(GC) 100 μM under conditions providing Z-form DNA. All λex =482 nm.
As expected, preparations of Ru(bpy)2(dppz)^2+ (10 μM) in buffer R(^9) and buffer R-L(^10) (pH=7.0) produced species that were nonluminescent solutions (FIG. 21a) (λirr =482 nm).

CT DNA = experiment: Luminescence in presence of CT DNA; format: binding, calf
Procedure: While a linear relationship of the luminescence is observed for Ru(bpy)2 (dppz)^2+ in iso-propanol as a function of temperature this is not the behavior seen when the complex is bound to DNA. When the complex, Ru(bpy)2 (dppz)^2+ is bound to cal-thymus (CT) DNA (100 μM) under low salt conditions at 25 ° C. a biexponential lifetime is observed. A short component which is assigned to a surface interaction, and a long component which is assigned to an intercalated species. As is shown in Table 1, the short component remains relatively unchanged until 70 ° C. when there is an abrupt decrease in the lifetime to 45 ns at 85° C. […] Under these conditions the CT DNA melts and the observed lifetimes of the complexes are similar to those lifetimes measured with single stranded DNA. […] In fact there is an abrupt decrease in the quantum yield at the melting temperature at this salt concentration. This decrease in quantum yield may be explained thus: when the complex is bound to the double stranded form the quenching ability of H2 O is inhibited while at the melting temperature the single stranded form of DNA cannot protect the complex from quenching of H2 O and therefore the observed luminescence is not as intense.

poly d(AT).d(AT) = experiment: Luminescence with poly d(AT).d(AT); format: binding; settings: Buffer (50.0 mM NaCl), 25
poly r(AU).r(AU) = experiment: Luminescence with poly r(AU).r(AU); format: binding
Description: It appears then that luminescence is observed only when the ruthenium complex is intercalated in (or perhaps otherwise protected by) the nucleic acid structure. […] The relative luminescence of ruthenium complexes in the presence of various helical DNA's under varying conditions is shown in Table 16.

[5] = test system: electrophoresed DNA in agarose gel; experiment: Staining of DNA in agarose gels; settings: in words
Description: One interesting application is the binding of this complex to DNA that has been electrophoresed in a agarose gel.

[6] = test system: poly d(GC).d(GC) Z-form DNA; experiment: Luminescence with poly d(GC).d(GC), Z-form; format: binding
Procedure: as §2
Preparations of Ru(bpy)2 (dppz)^2+ (10 μM) in buffer R^(40) and buffer R-L^(41) (pH 7.0) produced species that were nonluminescent solutions (FIG. 21a) (λirr =482 nm). […] Luminescent behavior such as this can be attributed to a highly intercalated species. This must be due to the complex being bound to the Z-form and not due to lower salt conditions (or added Co(NH3)6^3+) as the under the same Z-form producing conditions, calf thymus DNA produces the expected B-form luminescence.
An interesting twist to the luminescent properties of Ru(bpy)2 (dppz)^2+ is observed when this complex is bound to the left handed helix Z-form DNA. […] Luminescent behavior such as this can be attributed to a highly intercalated species. This must be due to the complex being bound to the Z-from nand not due to lower salt conditions (or added Co(NH3)6^3+) as the under the same Z-form producing conditions, calf thymus DNA produces the expected B-from luminescence.

Stability / handling = format: physicochemical; settings: in words
calf thymus DNA = experiment: Equilibrium dialysis of racemic complexes against calf thymus DNA (Scatchard, dialysate CD); format: binding; settings: in words
Procedure: Equilibrium Dialysis: Equlibrium dialysis of the reacemic metal complexes was perforemd against calf-thymus DNA using procedures described previously. (74) The buffer used was 5 mM Tris, 50 mM NaCl at pH 7.5. Samples were agitated on a shaker bath during equilibration which occurred after three to five days, as determined by control samples containing no DNA. After equilibration, volumes of liquid inside and outside the dialysis bags were determined (approximately 1 and 3 mls, respectively) and circular dichroism of the dialysate was meaxured on a Jasco J-40 spectropolarimeter. Final ruthenium concentration inside and outside the bags were measured by visible absorbance. Data anaylsis was performed on a VAX-780 using non-linear least squares analysis.
Equilibrium Dialysis: Equilibrium binding constants for the metal complexes with DNA may be determined classically by equilibrium dialysis. Calf thymus DNA was dialyzed against the series of mixed ligand complexes using a broad range of ruthenium concentrations. […] The results have been plotted according to Scatchard (88), where r is the ratio of bound metal to DNA-phosphate concentration, and cf is the concentration of free metal complex. The data were fit by non-linear least squares analysis to the McGhee and von Hippel equation (8945) governing random non-cooperative binding to a lattice,
where r is the ratio of bound concentration of ruthenium to the concentration of DNA-phosphate, cf is the concentration of ruthenium free in soltuion, Kb the intrinsic binding constant, and the integer /, which measures the degree of anti-cooperativeity, is the size of a binding site in base pairs. The curves shown reflect the best fit after variation of two parameters: the intrinsic binding constant, Kb, and binding stie size, /. For those complexes were cooperatively was observed, the equation (89) incorporating a cooperativity parameter was used.
Equilibrium dialysis experiments additionally offer the opportunity to examine any enantiomeric selectivities associated with binding. After dialysis of the DNA against the racemic mixture, optical activity observed in the dialysate refelects an enrichment in the dialysate in the less favored enantiomer. For most of the complexes, optical activity was found in the dialysate. Values for the extent of enantiomeric selectivity could not be quanitated in the absence of determinations of DE and assignments of absolute configuration. Assuming that the signs of the circular chroism in the ultraviolet ligand bands are the same for the these ligands as that for the parent phenanthroline complex, (90) we have assigned the absolute configuration of these complexes by comparison to spectra for enantiomers of Ru(phen)3^2+ and have compared levels of enantioselectivity qualitatively through measurements of circular dichroic intensity per rutheium bound. Based upon these assumptions, we find enantionmeric selectivities for the polyridyl complexes to reflect an enrichment in the isomer in the dialysate and the preferential binding of the isomer to the right-handed DNA. This observation is consistent with the preferential intercalation of isomers found earlier for Ru(phen)3^2+ in right-handed B-DNA. (63) We may also compare relative enantioselectivities for different ancillary ligands. […] The same comparison may be seen qualitatively between Ru(phen)2 DIP^2+ and Ru(bpy)2 DIP^2+.

pBR322 DNA = settings: reference intercalator; cited from earlier work
[7] = 10 μM complex, 100 μM DNA, buffer R-L

With `[Cu+].c1cnc2c(c1)ccc1cccnc12.c1cnc2c(c1)ccc1cccnc12` [Cu(phen)2 +] as the molecule, how does the “footprint quality, EcoRI” value [1] read?
Its value is “failed to footprint the protein”.

And the “footprint quality, distamycin” value [2]?
Its value is “lacks the necessary sequence neutrality”.

And the “3'-shift of distamycin footprint” value [3]?
The value was 2-3 pair.

What does the source list for `[Ru+2].c1ccc(-c2ccccn2)nc1.c1ccc(-c2ccccn2)nc1.c1ccc2nc3c4cccnc4c4ncccc4c3nc2c1` [Ru(bpy)2 (dppz)^2+]?
highest luminescence polarization, B-form (B-form DNA; 1 μM probe): 0.15; limiting luminescence polarization, B-form (B-form DNA): 0.10; highest luminescence polarization, Z-form (Z-form DNA; 1 μM complex, 100 μM DNA): 0.35; limiting luminescence polarization, Z-form (Z-form DNA; 100 μM DNA): 0.14; relative strength of binding, Z-form vs B-form (Z-form DNA; in words): binds better to the Z-form; also recorded: held more rigidly by Z-form than by the analogous B-form; luminescence with B-form DNA ([4]; 10 μM complex, 100 μM DNA): highly luminescent; luminescence λmax with B-form DNA ([4]; 10 μM complex, 100 μM DNA): 628 nm; Rel. Lumi. ([4]; Buffer (50.0 mM NaCl), poly d(GC).d(GC), 25): 0.72; Rel. Lumi. (CT DNA; Buffer (50.0 mM NaCl), 25): 0.55; Rel. Lumi. (CT DNA; Buffer (50.0 mM NaCl), 75): 0.53; Rel. Lumi. (CT DNA; Buffer** (0.5 mM NaCl), 25): 0.61; Rel. Lumi. (CT DNA; Buffer** (0.5 mM NaCl), 35): 0.06; Rel. Lumi. (CT DNA; Buffer** (0.5 mM NaCl), 45): 0.59; Rel. Lumi. (CT DNA; Buffer** (0.5 mM NaCl), 55): 0.55; Rel. Lumi. (CT DNA; Buffer** (0.5 mM NaCl), 70): 0.47; Rel. Lumi. (CT DNA; Buffer** (0.5 mM NaCl), 90): 0.23; Rel. Lumi. (poly d(AT).d(AT)): 0.68; luminescence with poly r(AU).r(AU) (poly r(AU).r(AU); 10 μM complex, 100 μM RNA, buffer R): no luminescence; Rel. Lumi. (poly r(AU).r(AU); Buffer (50.0 mM NaCl), 25): 0.01; staining of DNA in agarose gels [5]: no background luminescence from the complex bound to agarose; luminescence with Z-form DNA [6, 7]: highly luminescent; luminescence λmax with Z-form DNA [6, 7]: 640 nm; effect on Z to B transition ([6]; circular dichroism, over hours): does not cause the Z to B transition

What does the source list for `N=C1C(=N)c2ccccc2-c2ccccc21.N=C1C(=N)c2ccccc2-c2ccccc21.N=C1C(=N)c2ccccc2-c2ccccc21.[Ru+2]` [Ru(phi)3^2+]?
stability (Stability / handling): does not decompose upon exposure to air or by continuous irradiation with visible light; aggregation in solution (calf thymus DNA): extensive aggregation

With `CC[n+]1c(-c2ccccc2)c2cc(N)ccc2c2ccc(N)cc21` [ethidium, reference compound] as the molecule, how does the Unwinding Angle (pBR322 DNA) read?
Its Unwinding Angle is 26 °.

What about the “staining of DNA in agarose gels” value [5] of the same molecule?
The value was “found to stain DNA imbedded in the agarose gels”.
